Data reported in patent publication US20180360769A1, “SYSTEMS AND METHODS FOR TRANSDERMAL DRUG DELIVERY” (Elliptical Therapeutics, LLC, priority 2015, published 2018).

Legend:
[1] = test system: moderate to severe post-operative pain; conditions: cited from earlier work
[2] = in vivo; cited from earlier work
[3] = test system: rabbit skin; conditions: in vivo
[4] = animal models; cited from earlier work
[5] = human subjects, cited from earlier work

O=C(c1ccccc1)c1ccc2n1CCC2C(=O)O (racemic) [Toradol®, Ketorolac tromethamine]
adverse effects ([1]; administered orally for extended periods of time): gastric irritation and ulcers have been observed | efficacy compared with morphine, meperidine, or pentazocine ([1]; single-dose, moderate to severe post-operative pain): more efficacious

O=C(c1ccccc1)c1ccc2n1CCC2C(=O)O (racemic) [racemic ketorolac, ketorolac]
biological half-life [2]: 4-6 hours

CCCCCCCCCCCCOS(=O)(=O)[O-].[Na+] [SDS, 5%, sodium dodecyl sulfate]
Overall Edema Score ([3]; New Zealand): 2.0 | Overall Erythema Score ([3]; New Zealand): 1.0

O=C(c1ccccc1)c1ccc2n1CC[C@@H]2C(=O)O [(s)-ketorolac]
potency compared with the (r)-enantiomer [4]: approximately twice as potent | skin irritation (erythema and edema), in words [3]: non-irritant | plasma concentrations compared with (r)-ketorolac ([5]; after oral administration of racemic ketorolac, all sample times): lower | clearance compared with (r)-ketorolac ([5]; single oral solution dose): greater | plasma half-life compared with (r)-ketorolac ([5]; single oral solution dose): shorter
